Results as given in PMC5962729 (Frontiers in Pharmacology, 2018).
One block for each compound: values may come before it.

Legend:
[1] = Identification of components and metabolites of YCHD in rat plasma, bile, urine and feces (UHPLC/Q-TOF-MS); assay type: in vivo; settings: rats, oral YCHD 12 g/kg, urine, feces
Method: After centrifuging at 4000 rpm for 10 min, supernatant plasma was harvested into heparinized tubes and then stored at -20°C for preservation. The rats in the second group (n = 6) were kept individually in metabolic cages to collect urine and feces. […] Subsequently, the rats were orally administered a single dose of YCHD (12 g/kg of body weight). […] For the third group of rats (n = 6), bile duct intubation was implemented, and blank bile samples were collected before administration. After the administration of YCHD at 12 g/kg of body weight, the drug-containing bile samples were collected.
Plasma, bile, and urine samples (200 μL each) were separately precipitated with six times of methanol–acetonitrile mixed solution (v/v, 1:1; containing 1% formic acid). After being vortex mixed for 5 min and centrifuged at 15,000 rpm for 5 min at 4°C, the supernatant was separated into another clean tube and dried under a gentle stream of nitrogen at 45°C. Subsequently, the residue was reconstituted in 100 μL of 50% methanol–water (v/v) and then vortex mixed for 10 min. After another round of centrifugation at 15,000 rpm for 5 min at 4°C, 5 μL of the supernatant was analyzed by UHPLC-MS/MS. A 0.5 g sample of naturally dried feces was supplemented with 2 mL of 80% methanol–water (v/v) and then ultrasonically extracted for 30 min at 4°C. After being centrifuged at 15,000 rpm for 10 min, the supernatant was dried under a gentle stream of nitrogen at 45°C. Finally, the residue was reconstituted in 1 mL of 50% methanol–water (v/v) and then vortex mixed for 10 min. After another round of centrifugation at 15,000 rpm for 5 min at 4°C, 5 μL of the supernatant sample was injected into the UHPLC-MS/MS system for analysis.
Separations were conducted on an Agilent SB-C18 column (2.1 mm × 50 mm, 1.8 μm) of a UHPLC/Q-TOF-MS system (Waters, Corp., Milford, MA, United States) maintained at 40°C.
A Synapt G2 quadrupole time-of-flight (Q/TOF) MS/MS system (Waters, Corp., Manchester, United Kingdom) equipped with an electrospray ionization (ESI) interface was operated in negative ionization mode and controlled by MassLynx software (Version 4.1). The optimized conditions for maximum detection of metabolites were as follows: the capillary voltage was set at 3.0 kV, extraction cone voltage was set at 10 and 15 V, source temperature was maintained at 120°C, and desolvation temperature was maintained at 450°C. […] An MS^E approach using a dynamic ramp of collision energy was also applied at two (low and high collision energies) scan functions. The following parameters were set: Function 1 (low energy)—mass scan range, 100–1000; scan time, 0.25 s; interscan delay, 0.05 s; collision energy, 4 V. Function 2 (high energy)—mass scan range, 100–1000; scan time, 0.2 s; interscan delay, 0.05 s; collision energy ramp, 10–30 V. Data were acquired using Masslynx^TM (Version 4.1. Waters, Crop., Milford, MA, United States), and Metabolynx^TM (Waters, Crop., Milford, MA, United States) was applied for post-acquisition data processing.

[2] = Pharmacokinetic study of YCHD components and phase II metabolites in normal rats (UHPLC-MS/MS, sulfatase enzymolysis); assay type: in vivo, rat; settings: for direct detection of the prototype in rat plasma after YCHD administration: before enzymolysis, transformed into phase II metabolites completely; for Tmax: po, 12 g/kg; for CL/F: read-out: CLz/F; for Vd/F: read-out: Vz/F
Method: (§1) To explore the pharmacokinetic properties of YCHD following intragastric administration in rats, a rapid and sensitive method involving the use of UHPLC-MS/MS (Agilent 6460 series, Agilent Technologies, Santa Clara, CA, United States) was developed and validated for the simultaneous quantification of 10 active components of rat plasma. The quantification was conducted in ESI negative ionization mode, and the mass spectrometry conditions were as follows: capillary voltage, 3500 V; gas flow, 12 L/min; nebulizer, 40 psi; gas temperature, 350°C; and delta EMV (-), 400. A 5 μL extraction sample was injected into the column (Agilent SB-C18 column, 2.1 mm × 50 mm, 1.8 μm) and eluted at 0.4 mL/min with a gradient elution of water (with 0.4% v/v formic acid) (A) and acetonitrile (B) (0–3 min, 5–60% B; 3–5 min, 60–90% B; 5–5.1 min, 90–5% B; and re-equilibration for 3 min).
(§2) To each 50 μL plasma sample, 10 μL of internal standard solution (paeoniflorin, 1000 ng/mL) and 300 μL of a mixed solution of methanol and acetonitrile (v/v, 1:1; containing 1% formic acid) were added. Subsequently, the solution was vortex mixed for 5 min. After centrifugation at 15,000 rpm for 5 min, the supernatant was transferred completely into a tube, before being evaporated under N2 at 40°C. The residue was then dissolved in 50 μL of 50% methanol–water (v/v, 1:1) through vortexing for 5 min, after centrifugation at 15,000 rpm for 10 min. Finally, 5 μL of the supernatant sample was injected into the UHPLC-MS/MS system for analysis.
The rats were randomly divided into two groups (n = 5 for each group). […] After 24 h, the two groups of rats received a single oral dose of YCHD (12 g/kg). Blood was collected in heparinized tubes at 5, 15, 30, 45, 60, 120, 240, 360, 480, 720, and 1440 min after administration. The blood samples were centrifuged at 4000 rpm for 10 min, and the supernatant plasma was harvested. Plasma samples (50 μL) were immediately processed as outlined in Section “Chromatographic and Mass Spectrometry Conditions.”
(§3) Additional plasma samples (50 μL) were enzymatically hydrolyzed with 50 μL of enzyme solution (65.86 mg of sulfatase, dissolved in 2 mL of sodium acetate buffer, pH 5.0) for phase II metabolite quantification, in accordance with our previous study ([Ding et al., 2012]). After being vortex mixed for 5 min, the mixture was incubated at 37°C for 30 min and then returned to room temperature. Subsequently, the samples were processed as outlined in Section “Chromatographic and Mass Spectrometry Conditions” for UHPLC-MS/MS analysis. During routine analysis, each analytical run included six blank plasma samples, a set of calibration samples, a set of QC samples, and unknowns.
(§4) All data are presented as mean ± SD. A one-way analysis of variance was used to compare data between two groups using SPSS (Version 21.0). The differences were considered to be statistically significant when p < 0.05 and highly significant when p < 0.01 or p < 0.001. Pharmacokinetic data analysis was performed using DAS 2.1.1 software (Mathematical Pharmacology Professional Committee of China, Shanghai, China).
After sulfatase-aided enzymolysis, all the phase II metabolites could transform into their prototypes, including rhein, emodin, genipin, and capillarisin. The specific contents of the phase II metabolites of these components were detected indirectly by evaluating the content difference of their prototypes in samples after enzymolysis and before enzymolysis
(§5) CG = Ca −[MG × (CGG/MGG + CGe/MGe)]
Ca, CGG, and CGe represent the concentration of genipin, genipin-1-β-D-gentiobioside, and geniposide after enzymolysis of sulfatase, respectively. MG, MGG-, and MGe represent the mass of genipin, genipin-1-β-D-gentiobioside, and geniposide, respectively. The pharmacokinetic curves of phase II metabolites are illustrated in Figure 4B.

[3] = Pharmacokinetic study of YCHD components and phase II metabolites in ANIT-induced cholestatic rats (UHPLC-MS/MS, sulfatase enzymolysis); assay type: in vivo, rat; settings: for AUC(0-∞) / Ka: Model group (ANIT 50 mg/kg cholestatic rats); for AUC(0-∞) / Ka / Cmax / Tmax / CL/F / MRT inf / Vd/F / half-life: plasma; for Cmax / Tmax / CL/F / MRT inf / Vd/F / half-life: rat, po, 12 g/kg; for CL/F: read-out: CLz/F; for MRT inf: read-out: MRT (0-∞) (converted); for Vd/F: read-out: Vz/F; for half-life: read-out: t1/2z
Method: as §1, with “400.” for “400. A 5 μL extraction sample was injected into the column (Agilent SB-C18 column, 2.1 mm × 50 mm, 1.8 μm) and eluted at 0.4 mL/min with a gradient elution of water (with 0.4% v/v formic acid) (A) and acetonitrile (B) (0–3 min, 5–60% B; 3–5 min, 60–90% B; 5–5.1 min, 90–5% B; and re-equilibration for 3 min).”
as §2
The rats were randomly divided into two groups (n = 5 for each group). […] The blood samples were centrifuged at 4000 rpm for 10 min, and the supernatant plasma was harvested. Plasma samples (50 μL) were immediately processed as outlined in Section “Chromatographic and Mass Spectrometry Conditions.”
as §3, §4
The specific contents of the phase II metabolites of these components were detected indirectly by evaluating the content difference of their prototypes in samples after enzymolysis and before enzymolysis
as §5
Ca, CGG, and CGe represent the concentration of genipin, genipin-1-β-D-gentiobioside, and geniposide after enzymolysis of sulfatase, respectively. MG, MGG-, and MGe represent the mass of genipin, genipin-1-β-D-gentiobioside, and geniposide, respectively.

[4] = Control group (normal rats), single oral YCHD 12 g/kg, plasma
[5] = Sprague Dawley, rat, plasma, in normal and cholestatic rats after oral administration of YCHD
[6] = Sprague Dawley, rat, Control group (normal rats), single oral YCHD 12 g/kg, plasma
[7] = rat, Control group (normal rats), single oral YCHD 12 g/kg, plasma

Source (biological samples in which the compound was identified) [1]: Bile, urine, feces | direct detection of the prototype in rat plasma after YCHD administration [2]: could not be detected directly
SMILES: COC(=O)C1=CO[C@@H](O)[C@@H]2C(CO)=CC[C@H]12 [Genipin]

SMILES: Cc1cc(O)c2c(c1)C(=O)c1cc(OS(=O)(=O)O)cc(O)c1C2=O [M7, Emodin-O-SO3]
Source (biological samples in which the compound was identified) [1]: Plasma, urine, feces

Source (biological samples in which the compound was identified) [1]: Urine, feces | direct detection of the prototype in rat plasma after YCHD administration [2]: could not be detected directly
SMILES: COc1c(O)cc2oc(Oc3ccc(O)cc3)cc(=O)c2c1O [Capillarisin]

AUC(0-∞) [2, 4]: 63847.8 ± 53249.0 µg·min/L | Ka [2, 4]: 119.2 ± 82.6 min⁻¹ | Tmax ([2]; Sprague Dawley, rat, plasma, Control group (normal rats), single oral YCHD 12 g/kg, plasma): 15 min | Tmax [2, 5]: ≤ 27 min | Cmax [2, 6]: 286 ± 14.5 ng/mL | CL/F [2, 6]: 445 ± 38 mL/min/kg | MRT inf ([2]; Sprague Dawley, rat, Control group (normal rats), single oral YCHD 12 g/kg, plasma, read-out: MRT (0-∞) (converted)): 1.42 h | Vd/F [2, 7]: 35.7 ± 29.1 L/kg | half-life ([2]; rat, Control group (normal rats), single oral YCHD 12 g/kg, plasma, read-out: t1/2z): 56.3 ± 43 min | AUC(0-∞) ([3]; single oral YCHD 12 g/kg): 32651.4 ± 19640.7 µg·min/L | Ka ([3]; single oral YCHD 12 g/kg): 75.2 ± 24.5 min⁻¹ | Cmax ([3]; Sprague Dawley): 78.9 ± 4.9 ng/mL | Tmax ([3]; Sprague Dawley): 24 min | CL/F ([3]; Sprague Dawley): 1190 ± 95 mL/min/kg | MRT inf ([3]; Sprague Dawley): 1.72 h | Vd/F [3]: 132 ± 39.7 L/kg | half-life [3]: 80.1 ± 27.5 min | AUC(0-∞) increased by, cholestatic model rats compared with normal rats ([3]; single oral YCHD 12 g/kg): 191.3% | AUC(0-∞) reduced by, cholestatic model rats compared with normal rats ([3]; single oral YCHD 12 g/kg): 48.9% | Cmax increased by, cholestatic model rats compared with normal rats ([3]; single oral YCHD 12 g/kg): 138.8% | Cmax reduced by, cholestatic model rats compared with normal rats ([3]; single oral YCHD 12 g/kg): 72.4%
SMILES: O=C(O)/C=C/c1ccc(O)c(O)c1 [Caffeic acid]

Source (biological samples in which the compound was identified) [1]: Plasma, bile, urine, feces
SMILES: CC(=O)c1ccc(OS(=O)(=O)O)cc1 [M6, 4-Hydroxyacetophenone-1-O-SO3]

AUC(0-∞) [2, 4]: 11559.2 ± 5248.0 µg·min/L | Ka [2, 4]: 19.0 ± 16.288 min⁻¹ | Tmax [2, 5]: ≤ 27 min | Tmax ([2]; rat, plasma, Control group (normal rats), single oral YCHD 12 g/kg, plasma): 15 min | Cmax [2, 7]: 33 ± 4.5 ng/mL | CL/F [2, 7]: 1480 ± 921 mL/min/kg | Vd/F [2, 7]: 3800 ± 2060 L/kg | AUC(0-∞) ([3]; single oral YCHD 12 g/kg): 21437.2 ± 12572.8 µg·min/L | Ka ([3]; single oral YCHD 12 g/kg): 38.945 ± 18.022 min⁻¹ | Cmax [3]: 78.9 ± 4.9 ng/mL | Tmax [3]: 27 min | CL/F [3]: 1360 ± 523 mL/min/kg | MRT inf [3]: 33.1 h | Vd/F [3]: 2110 ± 1660 L/kg | half-life [3]: 1660 ± 2120 min
SMILES: O=C(/C=C/c1ccc(O)c(O)c1)O[C@@H]1C[C@](O)(C(=O)O)C[C@@H](O)[C@H]1O [Chlorogenic acid]

Source (biological samples in which the compound was identified) [1]: Plasma, bile, urine, feces
SMILES: COC(=O)C1=COC(OC2OC(C(=O)O)C(O)C(O)C2O)C2C(CO)=CCC12 (stereo not shown) [M2, Genipin-1-O-gluA]

Source (biological samples in which the compound was identified) [1]: Plasma, bile, urine, feces | direct detection of the prototype in rat plasma after YCHD administration [2]: could not be detected directly
SMILES: Cc1cc(O)c2c(c1)C(=O)c1cc(O)cc(O)c1C2=O [Emodin]

Source (biological samples in which the compound was identified) [1]: Bile, urine, feces
SMILES: COC(=O)C1=COC(OS(=O)(=O)O)C2C(CO)=CCC12 (stereo not shown) [M3, Genipin-1-O-SO3]
